Experimental data as given in US20110182830A1, “INHALATION DRUG PRODUCTS, SYSTEMS AND USES” (Schering Corporation, priority 2008, published 2011).

Legend:
[1] = cited from earlier work
[2] = cited from earlier work; remark: listed apart in the source
[3] = Andersen Cascade Impactor (ACI) with USP throat, aerodynamic particle size distribution, pMDI alone vs pMDI with chamber, continuous flow 28.3 L/min; format: physicochemical; details: for reduction in FPD (μg) as compared to the pMDI alone: pMDI with OPTICHAMBER
Method: Pressurized MDI products were tested alone and as an inhalation system/drug product which included a pMDI in combination with one chamber such as the A[…]-STAT Plus™ (volume=148 mL), A[…]® (volume=[…]), VORTEX® AND OPTICHAMBER®.
An Andersen Cascade Impactor (ACI) with USP throat was used to measure aerodynamic particle size distribution. Two impactor configurations were used for the two flow rates. Plates 0 through 7 were used for sampling at 28.3 L/min; plates—1 through 6 were used for sampling at 60 L/min. The effective cut off diameters for the plates in each configuration were provided by the manufacturer. Total delivered dose values report the total mass of active ingredient recovered from the impactor (throat, plates and filter). Fine particle dose values report the total mass of active ingredient with aerodynamic diameter less than 4.7 μm.
FIGS. 1 and 2 show throat, fine particle dose and total delivered dose recoveries for both active ingredients, as measured by ACI under continuous flow at 28.3 L/min. Recoveries are shown for different spacer devices and the pMDI, as indicated in the legends. Data points represent mean values (n=5); error bars indicate one standard deviation.

[4] = pMDI with AEROCHAMBER Z-STAT PLUS

Structure (SMILES) | solubility in acetone [1] | solubility in chloroform ([1]; chloroform) | solubility in ethanol [1] | solubility in isopropanol [1] | solubility in methanol [1] | solubility in tetrahydrofuran ([1]; tetrahydrofuran) | solubility in water [1] | partition coefficient between octanol and water [2] | difference in fine particle dose (FPD, <4.7 μm) vs pMDI alone ([3]; pMDI with AEROCHAMBER MAX) [%] | difference in fine particle dose (FPD, <4.7 μm) vs pMDI alone [3, 4] | reduction in FPD (μg) as compared to the pMDI alone [3] | difference in fine particle dose (FPD, <4.7 μm) vs pMDI alone ([3]; pMDI with VORTEX) [%] | reduction of deposition in the throat portion of the ACI ([3]; use of several of the chambers vs pMDI alone) | solubility in diethyl ether ([1]; diethyl ether) | solubility in ethyl acetate ([1]; ethyl acetate) | solubility in glacial acetic acid ([1]; glacial acetic acid)
C[C@@H]1C[C@H]2[C@@H]3CCC4=CC(=O)C=C[C@]4(C)[C@@]3(Cl)[C@@H](O)C[C@]2(C)[C@@]1(OC(=O)c1ccco1)C(=O)CCl [mometasone furoate, 9,21-Dichloro-11(beta), 17-dihydroxy-16(alpha)-methylpregna-1,4-diene-3,20-dione 17-(2 furoate)] | soluble | soluble | slightly soluble | slightly soluble | slightly soluble | freely soluble | practically insoluble | greater than 5000 | ≤ 15 | less than 5% | about 30% | ≤ 20 | about 90% | – | – | –
COc1ccc(CC(C)NCC(O)c2ccc(O)c(NC=O)c2)cc1.O.O.O=C(O)/C=C/C(=O)O (racemic) [formoterol fumarate, (±)2-hydroxy-5-[(1RS)-1-hydroxy-2-[[(1RS)-2-(4-methoxyphenyl)-1methylethyl]-amino]ethyl] formanilide fumarate dihydrate] | practically insoluble | – | sparingly soluble | sparingly soluble | soluble | – | slightly soluble | – | ≤ 15 | less than 5% | about 30% | ≤ 20 | – | practically insoluble | practically insoluble | freely soluble
